From patent US9084770B2, “Modulation of insulin like growth factor I receptor expression in cancer” (Antisense Therapeutics, Ltd., priority 2008, dated 2015)

What follows are substances tested on human IGF-IR mRNA (assay: Antisense inhibition of human IGF-IR mRNA levels by quantitative RT-PCR (Table 1)). Conditions: as shown in Table 1.
Type: cell-based
Set-up: %INHIB (human IGF-IR mRNA levels): concentration or dose not given beside the values
Text: Treatment of A549 cell cultures with oligonucleotides targeting IGF-IR is as described in WO 2004/072284.
Quantitation of IGF-IR mRNA levels was accomplished by RT-PCR using the ABI PRISM (trademark) 7600, 7700, or 7900 Sequence Detection System (PE-Applied Biosystems, Foster City, Calif.) according to manufacturer's instructions. This is a closed-tube, non-gel-based, fluorescence detection system which allows high-throughput quantitation of PCR products in real-time. As opposed to standard PCR in which amplification products are quantitated after the PCR is completed, products in real-time quantitative PCR are quantitated as they accumulate. This is accomplished by including in the PCR reaction an oligonucleotide probe that anneals specifically between the forward and reverse PCR primers, and contains two fluorescent dyes. A reporter dye (e.g., FAM or JOE, obtained from either PE-Applied Biosystems, Foster City, Calif., Operon Technologies Inc., Alameda, Calif. or Integrated DNA Technologies Inc., Coralville, Iowa) is attached to the 5′-end of the probe and a quencher dye (e.g., TAMRA, obtained from either PE-Applied Biosystems, Foster City, Calif., Operon Technologies Inc., Alameda, Calif. or Integrated DNA Technologies Inc., Coralville, Iowa) is attached to the 3′-end of the probe. When the probe and dyes are intact, reporter dye emission is quenched by the proximity of the 3′ quencher dye. During amplification, annealing of the probe to the target sequence creates a substrate that can be cleaved by the 5′-exonuclease activity of Taq polymerase. […] With each cycle, additional reporter dye molecules are cleaved from their respective probes, and the fluorescence intensity is monitored at regular intervals by laser optics built into the ABI PRISM (trademark) Sequence Detection System. In each assay, a series of parallel reactions containing serial dilutions of mRNA from untreated control samples generates a standard curve that is used to quantitate the percent inhibition after antisense oligonucleotide treatment of test samples.
PCR reagents were obtained from Invitrogen Corporation, (Carlsbad, Calif.). RT-PCR reactions were carried out by adding 20 μL PCR cocktail (2.5×PCR buffer minus MgCl2, 6.6 mM MgCl2, 375 μM each of dATP, dCTP, […] and dGTP, 375 nM each of forward primer and reverse primer, 125 nM of probe, 4 Units RNAse inhibitor, 1.25 Units PLATINUM (registered trademark) Taq, 5 Units MuLV reverse transcriptase, and 2.5×ROX dye) to 96-well plates containing 30 μL total RNA solution (20-200 ng). The RT reaction was carried out by incubation for 30 minutes at 48° C. Following a 10 minute incubation at 95° C. to activate the PLATINUM (trademark) Taq, 40 cycles of a two-step PCR protocol were carried out: 95° C. for 15 seconds (denaturation) followed by 60° C. for 1.5 minutes (annealing/extension).
Gene target quantities obtained by RT-PCR are normalized using either the expression level of GAPDH, a gene whose expression is constant, or by quantifying total RNA using RiboGreen (trademark) (Molecular Probes, Inc. Eugene, Oreg.). GAPDH expression is quantified by RT-PCR, by being run simultaneously with the target, multiplexing, or separately. Total RNA is quantified using RiboGreen (trademark) RNA quantification reagent (Molecular Probes, Inc. Eugene, Oreg.). Methods of RNA quantification by RiboGreen (trademark) are taught in Jones et al., 1998.
Probes and primers to human IGF-IR were designed to hybridize to the IGF-IR nucleotide sequence, using published sequence information (GenBank accession number NM000875 (SEQ ID NO:76) or M69229 (SEQ ID NO:77) which is the 5′ untranslated of the IGF-IR gene sequence (see FIG. 6).
In accordance with the present invention, a series of antisense compounds were designed to target different regions of the human IGF-IR mRNA or the 5′ untranslated region, using published sequences set forth in NM000875 (SEQ ID NO:77) and M69229 (SEQ ID NO:76). […]
“323747 (antisense CCAGCTTCTCAGCCTCGTGG; listed as DNA, chemistry not fully specified) [compound 323747]” was tested, and the “inhibition of IGF-IR expression (lead compounds)” value (from here on “inhibition of IGF-IR expression”) was “demonstrated inhibition”.
For “175323 (antisense AATGAATGAGCGGCTCCCCC; listed as DNA, chemistry not fully specified) [compound 175323]”, the “inhibition of IGF-IR expression” value was “demonstrated inhibition”.
In the case of “323767 (antisense CCAGCGTGTCTCTCAAATGG; listed as DNA, chemistry not fully specified) [compound 323767]”, the “inhibition of IGF-IR expression” value is reported as “demonstrated inhibition”.
In the case of “175302 (antisense CCTCCATTTTCAAACCCGGA; listed as DNA, chemistry not fully specified) [compound 175302]”, the “inhibition of IGF-IR expression” value is reported as “demonstrated inhibition”.
“175316 (antisense GCTCGCTGAAGGTCACAGCC; listed as DNA, chemistry not fully specified) [compound 175316]” was tested, and the “inhibition of IGF-IR expression” value was “demonstrated inhibition”.

Same assay, conditions: quantitative RT-PCR; averages from 3 experiments
For “323717 (antisense CTGGACACAGGTCCCCACAT; listed as DNA, chemistry not fully specified) [compound 323717]”, the “%INHIB (human IGF-IR mRNA levels)” value was 45%.
With “323743 (antisense TTGCAGCTGTGGATATCGAT; listed as DNA, chemistry not fully specified) [compound 323743]” the “%INHIB (human IGF-IR mRNA levels)” value was 53%.
For “323745 (antisense AGCCTCGTGGTTGCAGCTGT; listed as DNA, chemistry not fully specified) [compound 323745]”, the “%INHIB (human IGF-IR mRNA levels)” value was 75%.
“323747 (antisense CCAGCTTCTCAGCCTCGTGG; listed as DNA, chemistry not fully specified) [compound 323747]” was tested, and the “%INHIB (human IGF-IR mRNA levels)” value was 85%.
For “175326 (antisense CCCAAATCCAGGACACACAC; listed as DNA, chemistry not fully specified) [compound 175326]”, the “%INHIB (human IGF-IR mRNA levels)” value was 74%.
With “323748 (antisense GCAGCCCAGCTTCTCAGCCT; listed as DNA, chemistry not fully specified) [compound 323748]” the “%INHIB (human IGF-IR mRNA levels)” value was 77%.
In the case of “323713 (antisense GTTATTGGACACCGCATCCA; listed as DNA, chemistry not fully specified) [compound 323713]”, the “%INHIB (human IGF-IR mRNA levels)” value is reported as 31%.
With “175323 (antisense AATGAATGAGCGGCTCCCCC; listed as DNA, chemistry not fully specified) [compound 175323]” the “%INHIB (human IGF-IR mRNA levels)” value was 82%.
For “175312 (antisense TTTCAAACCCGGAGAGGCAG; listed as DNA, chemistry not fully specified) [compound 175312]”, the “%INHIB (human IGF-IR mRNA levels)” value was 31%.
In the case of “323763 (antisense ATCCAAGGATCAGCAGGTCG; listed as DNA, chemistry not fully specified) [compound 323763]”, the “%INHIB (human IGF-IR mRNA levels)” value is reported as 69%.
For “323727 (antisense GGAGTAATTCCCTTCTAGCT; listed as DNA, chemistry not fully specified) [compound 323727]”, the “%INHIB (human IGF-IR mRNA levels)” value was 21%.
“323755 (antisense GGAACGTACACATCAGCAGC; listed as DNA, chemistry not fully specified) [compound 323755]” was tested, and the “%INHIB (human IGF-IR mRNA levels)” value was 36%.
With “323767 (antisense CCAGCGTGTCTCTCAAATGG; listed as DNA, chemistry not fully specified) [compound 323767]” the “%INHIB (human IGF-IR mRNA levels)” value was 84%.
In the case of “175320 (antisense CCAAATCCAGGACACACACA; listed as DNA, chemistry not fully specified) [compound 175320]”, the “%INHIB (human IGF-IR mRNA levels)” value is reported as 64%.
With “323721 (antisense GTTGTACTCATTGTTGATGG; listed as DNA, chemistry not fully specified) [compound 323721]” the “%INHIB (human IGF-IR mRNA levels)” value was 73%.
With “175298 (antisense GGAGTCAAAATGAATGAGCG; listed as DNA, chemistry not fully specified) [compound 175298]” the “%INHIB (human IGF-IR mRNA levels)” value was 74%.
With “323711 (antisense CCCCCGAGTAATGTTCCTCA; listed as DNA, chemistry not fully specified) [compound 323711]” the “%INHIB (human IGF-IR mRNA levels)” value was 41%.
For “175325 (antisense AAGGTCACAGCCGAGGCGAG; listed as DNA, chemistry not fully specified) [compound 175325]”, the “%INHIB (human IGF-IR mRNA levels)” value was 55%.
For “175324 (antisense TGAAGGTCACAGCCGAGGCG; listed as DNA, chemistry not fully specified) [compound 175324]”, the “%INHIB (human IGF-IR mRNA levels)” value was 57%.
With “175328 (antisense GGTAAACAAGAGCCCCAGCC; listed as DNA, chemistry not fully specified) [compound 175328]” the “%INHIB (human IGF-IR mRNA levels)” value was 64%.
With “323756 (antisense ACTCCTTCATAGACCATCCC; listed as DNA, chemistry not fully specified) [compound 323756]” the “%INHIB (human IGF-IR mRNA levels)” value was 26%.
With “323741 (antisense GTTATCCACTCTGCTCTCAA; listed as DNA, chemistry not fully specified) [compound 323741]” the “%INHIB (human IGF-IR mRNA levels)” value was 57%.
With “175313 (antisense TAGGCGAGGAAAAACAAGCC; listed as DNA, chemistry not fully specified) [compound 175313]” the “%INHIB (human IGF-IR mRNA levels)” value was 62%.
“323733 (antisense CCATGGTGAGGGTCACAGCC; listed as DNA, chemistry not fully specified) [compound 323733]” was tested, and the “%INHIB (human IGF-IR mRNA levels)” value was 78%.
For “323742 (antisense TCCTTGTTATCCACTCTGCT; listed as DNA, chemistry not fully specified) [compound 323742]”, the “%INHIB (human IGF-IR mRNA levels)” value was 58%.
In the case of “175302 (antisense CCTCCATTTTCAAACCCGGA; listed as DNA, chemistry not fully specified) [compound 175302]”, the “%INHIB (human IGF-IR mRNA levels)” value is reported as 93%.
For “323738 (antisense TGTTCCTGCTTCGGCTGGAC; listed as DNA, chemistry not fully specified) [compound 323738]”, the “%INHIB (human IGF-IR mRNA levels)” value was 76%.
For “323725 (antisense TTTGTGGTCCAGCAGCGGTA; listed as DNA, chemistry not fully specified) [compound 323725]”, the “%INHIB (human IGF-IR mRNA levels)” value was 67%.
For “175319 (antisense GAAACAATACTCCGAAGGGC; listed as DNA, chemistry not fully specified) [compound 175319]”, the “%INHIB (human IGF-IR mRNA levels)” value was 63%.
For “175303 (antisense GAAGGTCACAGCCGAGGCGA; listed as DNA, chemistry not fully specified) [compound 175303]”, the “%INHIB (human IGF-IR mRNA levels)” value was 82%.
In the case of “323751 (antisense GCCACTTTAAAAAGATGGAG; listed as DNA, chemistry not fully specified) [compound 323751]”, the “%INHIB (human IGF-IR mRNA levels)” value is reported as 77%.
In the case of “323753 (antisense AAGAACACAGGATCTGTCCA; listed as DNA, chemistry not fully specified) [compound 323753]”, the “%INHIB (human IGF-IR mRNA levels)” value is reported as 38%.
“323705 (antisense TTGTAGAAGAGTTTCCAGCC; listed as DNA, chemistry not fully specified) [compound 323705]” was tested, and the “%INHIB (human IGF-IR mRNA levels)” value was 52%.
For “175304 (antisense TCGCTGAAGGTCACAGCCGA; listed as DNA, chemistry not fully specified) [compound 175304]”, the “%INHIB (human IGF-IR mRNA levels)” value was 76%.
For “175316 (antisense GCTCGCTGAAGGTCACAGCC; listed as DNA, chemistry not fully specified) [compound 175316]”, the “%INHIB (human IGF-IR mRNA levels)” value was 82%.
In the case of “175321 (antisense TCGGCCTCCATTTTCAAACC; listed as DNA, chemistry not fully specified) [compound 175321]”, the “%INHIB (human IGF-IR mRNA levels)” value is reported as 78%.
For “323734 (antisense TTGGTGCGAATGTACAAGAT; listed as DNA, chemistry not fully specified) [compound 323734]”, the “%INHIB (human IGF-IR mRNA levels)” value was 61%.
